From PMC11656837, “pH-Responsive Peptide Nanoparticles Deliver Macromolecules to Cells via Endosomal Membrane Nanoporation” (ACS Nano, 2024)

What was measured:
[1] = test system: Chinese Hamster Ovary (CHO) cells; test: Cytosolic delivery of yellow fluorescent protein (confocal microscopy); assay type: cell-based; settings: 25 μM peptide, 3.5 μM external YFP, 37 °C
Procedure: To validate the dextran delivery experiments, we also delivered two separate fluorescent proteins of ∼27 kDa molecular weight to the cytosol of two different cell lines using C16-D-pHD108 (see Figure 7). HeLa cells were incubated overnight with 10 μM green fluorescent protein (GFP), and Chinese Hamster Ovary (CHO) cells were incubated overnight with 3.5 μM yellow fluorescent protein (YFP), with and without 25 μM C16-D-pHD108. Just before imaging, external GFP and YFP were washed off and replaced with TAMRA-dextran (red) or fluorescent protein mTurquoise (blue), respectively, to mark the cell boundaries and extracellular spaces. […] These cells, especially those incubated with the higher 10 μM concentration of GFP, show endosomes with entrapped FP, just as we observed for dextran delivery. […] The apparent nuclear concentration of GFP in cells incubated with GFP but no peptide is indistinguishable from the background. With an external concentration of 3.5 μM, the YFP concentration delivered to the cell cytosol ranges from 1 to 3 μM, with a median of about 1.2 μM or 35% of the external concentration. The apparent cytosolic concentration of YFP in cells incubated with YFP but no peptide is indistinguishable from the background. We also performed YFP delivery experiments at a 4 h time point, Supplemental Figure S4. […]
For fluorescent protein or fluorescein-(Fab)2 fragment delivery, HeLa cells were incubated at 37 °C overnight in the presence of GFP with and without C16-D-pHD108 and CHO cells were incubated at 37 °C overnight with YFP in the presence and absence of C16-D-pHD108. […] Quantitation of delivered protein was performed by comparing measured intensities from microscopy images of standard protein solutions of known concentrations. […]
E. YFP intensities from the nuclei and cytosol of the cells in panels A,B and C,D. The dotted lines are the intensities of standard reference solution of media only and 3.5 µM YFP measured at the same time under identical conditions. […]

[2] = Particle size by quasielastic / dynamic light scattering; assay type: physicochemical; settings: QLS/DLS
Procedure: To test this hypothesis, we next studied the C16-D-pHD108 particle size in solution using quasielastic light scattering (QLS). Samples of C16-D-pHD108 were dissolved in PBS with 138 mM NaCl, PBS with 69 mM NaCl, or PO4 buffer with no added salt. Most measurements were made at 25 μM peptides, but we tested concentrations between 25 and 200 μM peptides. Buffer without peptides gave a very low scattering intensity and no coherent particle peaks. […] Salt concentrations of 0, 69, and 138 mM had only small effects on the nanoparticle size. The median particle size for all samples was ∼120 nm. Particle size distributions for 25 μM C16-D-pHD108 are shown in Figure 8C at several salt concentrations for independently prepared samples. In Figure 8D, the light scattering intensity is shown to be a linear function of peptide concentration, with a Y-intercept at zero.
Dynamic light scattering was performed by using a Malvern Zetasizer Nano ZS90 DLS instrument. After HPLC purification, 10 nmol aliquots of C16-D-pHD108 were dried in silanized Eppendorf tubes. Peptide readily dissolved in PBS buffer and other aqueous buffers and remained stable in solution. For DLS samples, C16-D-pHD108 was dissolved in PBS with 138 mM NaCl, in PBS with 69 mM NaCl (50% of normal), or in a PO4 buffer with no added salt. Most measurements were made at 25 μM peptide, but we tested concentrations between 25 and 200 μM peptide. […]

[3] = Tryptophan fluorescence emission (water exposure of Trp19); assay type: physicochemical; settings: buffer pH 7, no vesicles, 25 μM peptide in PBS
Source text: Here, in Figure 8, we examine the solution behavior of C16-D-pHD108 using tryptophan fluorescence to measure the water exposure of the tryptophan residue at position 19, Figure 1, and using circular dichroism spectroscopy to measure the secondary structure.
In Figure 8B, we show tryptophan emission spectra for the same three samples.

[4] = test system: HeLa cells; test: Cell binding (peptide remaining in solution by HPLC); assay type: cell-based, human; settings: HeLa 10^6 cells/ml in PBS pH 7, 20 μM peptide, 30 min, room temperature, supernatant by HPLC
Procedure: This was done by equilibrating a peptide solution with and without cells for 30 min, followed by measurement of the peptide remaining in solution using reverse phase HPLC. […] The cells were also stained with the DNA staining dye Hoechst 33342. […] Cell/membrane staining by C16-D-pHD108-TAMRA continues to grow rapidly as peptides accumulate on the membranes.
HeLa or RAW 264.7 cells were trypsinized, washed, and counted. Cells were concentrated in a minimal amount of PBS. To measure binding, 25 μL of cells at a known count were transferred to tubes and 25 μL of peptide in PBS was added for a final peptide concentration of 20 μM. Samples were incubated for 30 min with gentle agitation at room temperature. Cells were pelleted in a swinging bucket centrifuge, and 30 μL of supernatant was subjected to HPLC to measure the peptide remaining in the solution. A sample without cells but treated identically was used as a negative control for binding to normalize the recovered peptide.

Compound: CCCCCCCCCCCCCCCC(=O)NCC(=O)N[C@@H](C(=O)NCC(=O)N[C@H](CCC(=O)O)C(=O)N[C@@H](C(=O)N[C@H](CC(C)C)C(=O)N[C@H](Cc1c[nH]cn1)C(=O)N[C@H](CCC(=O)O)C(=O)N[C@H](CC(C)C)C(=O)N[C@H](C)C(=O)N[C@H](CCC(=O)O)C(=O)NCC(=O)N[C@H](CC(C)C)C(=O)N1CCC[C@@H]1C(=O)N[C@H](CCC(=O)O)C(=O)N[C@H](CC(C)C)C(=O)N[C@H](CCC(N)=O)C(=O)N[C@H](CCC(=O)O)C(=O)N[C@H](Cc1c[nH]c2ccccc12)C(=O)N[C@@H](C(=O)N[C@H](Cc1c[nH]cn1)C(=O)N[C@H](C)C(=O)N[C@H](C)C(=O)N[C@H](CCC(N)=O)C(=O)N[C@H](CCC(N)=O)C(=O)N[C@H](CC(C)C)C(N)=O)[C@H](C)CC)C(C)C)[C@H](C)CC [C16-D-pHD108]
- YFP delivered to cytosol, median as percent of the external solution ([1]; 4 h): about 13%
- YFP concentration delivered to cell cytosol, median ([1]; overnight): about 1.2 μM
- YFP delivered to cytosol, median as percent of the external concentration ([1]; overnight): ~35%
- stability of particle size distributions ([2]; after sample preparation, pH 7): stable up to a week
- median particle size / average diameter ([2]; all samples, buffer pH 7): around 120 nm
- tryptophan fluorescence emission maximum [3]: 330 nm
- binding to cells at pH 7 [4]: no measurable binding
